Calls of active or inactive are those of the source. The rule behind the calls is not given here.
What was measured:
[1] = molecular target: T1, Bromodomain-containing protein 4 (Homo sapiens, UniProt O60885); assay: Inhibition of BRD4 BD1 in human THP1 cells assessed as inhibition of MSU-induced NF-kappaB P65 phosphorylation at 1 uM incubated for 1 hr followed by MSU treatment and measured after 12 hrs by Western blot analysis; type: cell-based
[2] = molecular target: T1, Bromodomain-containing protein 4; assay: Inhibition of MSU-induced BRD4 expression in human THP1 cells at 1 uM incubated for 1 hr followed by MSU treatment and measured after 12 hrs by Western blot analysis; type: cell-based
[3] = molecular target: T2, Peregrin (Homo sapiens, UniProt P55201); assay: Displacement of tetra-acetylated histone H4 peptide (1-21) from BRPF1b (unknown origin) incubated for 30 mins followed by further incubation with tetra-acetylated histone H4 peptide (1-21) for 30 mins by Alphascreen assay
T2 sequence (P55201 whole entry): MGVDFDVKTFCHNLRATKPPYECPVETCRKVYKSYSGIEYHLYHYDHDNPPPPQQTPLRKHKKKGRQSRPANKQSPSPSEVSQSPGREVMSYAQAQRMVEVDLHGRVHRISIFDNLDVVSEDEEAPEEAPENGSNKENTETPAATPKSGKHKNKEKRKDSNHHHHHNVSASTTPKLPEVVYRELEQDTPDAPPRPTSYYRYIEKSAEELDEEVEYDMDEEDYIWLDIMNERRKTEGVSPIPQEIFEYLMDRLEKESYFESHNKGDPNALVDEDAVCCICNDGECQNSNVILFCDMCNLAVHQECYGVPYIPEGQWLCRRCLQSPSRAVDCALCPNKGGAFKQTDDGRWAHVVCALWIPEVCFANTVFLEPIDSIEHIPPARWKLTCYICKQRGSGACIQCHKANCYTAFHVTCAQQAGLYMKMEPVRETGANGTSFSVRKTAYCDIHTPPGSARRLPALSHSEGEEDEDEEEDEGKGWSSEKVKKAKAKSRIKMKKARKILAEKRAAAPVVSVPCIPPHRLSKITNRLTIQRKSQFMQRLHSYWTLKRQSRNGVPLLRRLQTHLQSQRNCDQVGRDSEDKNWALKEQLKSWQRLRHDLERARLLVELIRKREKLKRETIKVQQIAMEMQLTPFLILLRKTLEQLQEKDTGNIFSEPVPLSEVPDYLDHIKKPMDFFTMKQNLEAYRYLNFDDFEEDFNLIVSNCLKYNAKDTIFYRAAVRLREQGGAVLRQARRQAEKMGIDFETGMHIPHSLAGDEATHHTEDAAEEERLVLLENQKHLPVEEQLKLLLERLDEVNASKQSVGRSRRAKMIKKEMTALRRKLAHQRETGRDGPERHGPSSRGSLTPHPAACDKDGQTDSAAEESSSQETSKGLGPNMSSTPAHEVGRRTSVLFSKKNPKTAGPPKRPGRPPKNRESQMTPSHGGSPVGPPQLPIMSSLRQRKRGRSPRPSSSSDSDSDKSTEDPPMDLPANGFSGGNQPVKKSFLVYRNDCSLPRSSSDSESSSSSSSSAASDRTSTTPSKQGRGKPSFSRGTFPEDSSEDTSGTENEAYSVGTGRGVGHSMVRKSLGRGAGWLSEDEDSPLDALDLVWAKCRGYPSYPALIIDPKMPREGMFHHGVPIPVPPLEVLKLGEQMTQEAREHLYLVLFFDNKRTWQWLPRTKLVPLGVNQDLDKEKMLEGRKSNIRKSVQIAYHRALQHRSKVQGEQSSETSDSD

[4] = system: RAW264.7; assay: Inhibition of LPS-induced NO overproduction in mouse RAW264.7 cells at 1 uM incubated for 2 hrs followed by LPS stimulation and measured after 22 hrs by Griess reagent based assay relative to control; type: functional; details: Mus musculus, RAW264.7
[5] = molecular target: T1, Bromodomain-containing protein 4; assay: Displacement of tetra-acetylated histone H4 peptide (1-21) from recombinant human N-terminal His-tagged BRD4 BD2 (349 to 460 residues) expressed in Escherichia coli incubated for 30 mins followed by further incubation with tetra-acetylated histone H4 peptide (1-21) for 30 mins by Alphascreen assay
[6] = molecular target: T1, Bromodomain-containing protein 4; assay: Inhibition of BRD4 BD1 in human THP1 cells assessed as inhibition of MSU-induced pyroptosis by measuring caspase+/PI- cells at 1 uM incubated for 1 hr followed by MSU treatment and measured after 12 hrs by PI/caspase 1 double staining based flow cytometric analysis (reference value: 4.2 %); type: cell-based; design: scale not given: the % may be the effect or the level left
[7] = Metabolic stability in rat liver microsomes assessed as half life measured upto 60 mins by LC/MS-MS analysis; type: ADME, Microsome
[8] = organism: Homo sapiens; assay: Selectivity index, ratio of IC50 for BRDT BD1 (unknown origin) to IC50 for recombinant human N-terminal His-tagged BRD4 BD1 (44 to 170 residues) expressed in Escherichia coli by AlphaScreen assay
[9] = Metabolic stability in human liver microsomes assessed as half life measured upto 60 mins by LC/MS-MS analysis; type: ADME, Microsome
[10] = system: Rattus norvegicus; assay: (§1) In vivo inhibition of MSU-induced pyroptosis in Sprague-Dawley rat model of acute gout arthritis assessed as caspase-/PI+ macrophage cells in synovial tissue at 1 mg/kg, ia administered 1 hr before MSU challenge and measured upto 24 hrs by PI staining based flow cytometric analysis (reference value: 8.71 %); type: functional; design: scale not given: the % may be the effect or the level left
[11] = Metabolic stability in human liver microsomes assessed as intrinsic clearance measured per mg protein upto 60 mins by LC/MS-MS analysis; type: ADME, Microsome; details: read-out: CLH
[12] = system: Rattus norvegicus; assay: In vivo inhibition of MSU-induced BRD4 expression in synovial tissue of Sprague-Dawley rat model of acute gout arthritis at 1 mg/kg, ia administered 1 hr before MSU challenge and measured upto 24 hrs by Western blot analysis; type: functional, organism-based
[13] = system: Rattus norvegicus; assay: Anti-arthritic activity in Sprague-Dawley rat model of acute gout arthritis assessed as reduction in MSU-induced neutrophil infiltration in synovial tissue at 1 mg/kg, ia administered 1 hr before MSU challenge and measured upto 24 hrs hematoxylin and eosin staining based histopathological analysis; type: functional, organism-based
[14] = system: Rattus norvegicus; assay: as §1, with “caspase+/PI+” for “caspase-/PI+”, “5.79” for “8.71”; type: functional; design: scale not given: the % may be the effect or the level left
[15] = system: Rattus norvegicus; assay: as §1, with “caspase-/PI-” for “caspase-/PI+”, “63.6” for “8.71”; type: functional; design: scale not given: the % may be the effect or the level left
[16] = system: Rattus norvegicus; assay: as §1, with “caspase+/PI-” for “caspase-/PI+”, “21.9” for “8.71”; type: functional; design: scale not given: the % may be the effect or the level left
[17] = molecular target: Bromodomain testis-specific protein (Homo sapiens, UniProt Q58F21); assay: Displacement of tetra-acetylated histone H4 peptide (1-21) from BRDT BD1 (unknown origin) incubated for 30 mins followed by further incubation with tetra-acetylated histone H4 peptide (1-21) for 30 mins by Alphascreen assay
[18] = molecular target: Bromodomain-containing protein 2 (Homo sapiens, UniProt P25440); assay: Displacement of tetra-acetylated histone H4 peptide (1-21) from BRD2 BD2 (unknown origin) incubated for 30 mins followed by further incubation with tetra-acetylated histone H4 peptide (1-21) for 30 mins by Alphascreen assay
Chain of Bromodomain-containing protein 2 (P25440 whole entry): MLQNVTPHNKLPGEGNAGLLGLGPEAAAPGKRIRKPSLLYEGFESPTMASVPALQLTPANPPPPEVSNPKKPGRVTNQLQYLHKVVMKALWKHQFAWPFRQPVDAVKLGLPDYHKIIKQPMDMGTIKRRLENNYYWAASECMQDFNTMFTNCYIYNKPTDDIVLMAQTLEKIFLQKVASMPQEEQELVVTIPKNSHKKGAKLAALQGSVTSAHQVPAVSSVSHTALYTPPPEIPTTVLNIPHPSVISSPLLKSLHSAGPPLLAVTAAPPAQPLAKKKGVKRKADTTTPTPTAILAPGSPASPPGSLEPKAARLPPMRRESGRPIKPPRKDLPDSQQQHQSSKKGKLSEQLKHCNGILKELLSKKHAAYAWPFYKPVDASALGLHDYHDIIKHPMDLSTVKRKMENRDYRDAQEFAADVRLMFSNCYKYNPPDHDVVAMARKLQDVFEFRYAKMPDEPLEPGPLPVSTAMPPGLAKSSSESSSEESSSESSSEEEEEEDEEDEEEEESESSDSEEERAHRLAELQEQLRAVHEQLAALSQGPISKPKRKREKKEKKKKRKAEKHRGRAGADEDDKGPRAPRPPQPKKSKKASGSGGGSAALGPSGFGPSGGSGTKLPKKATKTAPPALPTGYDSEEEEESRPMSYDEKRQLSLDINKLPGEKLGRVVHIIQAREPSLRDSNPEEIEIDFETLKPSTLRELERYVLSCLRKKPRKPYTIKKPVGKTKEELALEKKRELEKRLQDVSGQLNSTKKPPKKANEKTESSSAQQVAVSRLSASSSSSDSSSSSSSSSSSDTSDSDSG

[19] = molecular target: T1, Bromodomain-containing protein 4; assay: Inhibition of BRD4 BD1 in human THP1 cells assessed as Inhibition of MSU-induced IL-1beta secretion at 1 uM incubated for 1 hr followed by MSU treatment and measured after 12 hrs by ELISA; type: cell-based

inhibition [1]: Active | inhibition [2]: Active | IC50 [3]: 568 nM | IC50 [5]: 12.1 µM | Activity [6]: 4.1% | half-life [7]: 9.45 min | Ratio IC50 [8]: 4.1 | half-life [9]: 14.8 min | microsomal CLint [11]: 93.5 µL/min/mg | IC50 [17]: 357 nM | IC50 [18]: 21.4 µM | inhibition [19]: Active
Structure (SMILES): COc1ccccc1S(=O)(=O)Nc1ccc2c3c(cc(-n4cnc(C)c4)nc13)C(=O)N2C
inhibition at 1 µM [4]: 102% | Activity [10]: 15.4% | inhibition [12]: Active | inhibition [13]: Active | Activity [14]: 1.03% | Activity [15]: 83.1% | Activity [16]: 0.43%
